From the OPERA property sets (Mansouri et al. 2018)

Structure (SMILES) | melting point | boiling point | other results
COc1nc(NC(C)C)nc(NC(C)C)n1 | 91.5 °C | – | log10 Koc (L/kg): 2.6; log10 vapour pressure (mmHg): -5.64
NC(=O)C(Cl)(Cl)Cl | 142 °C | 240 °C | log10 Koc (L/kg): 0.99
Oc1c(Br)cc(Br)c2cccnc12 | 196 °C | – | –
Cc1ccc(Cl)cc1Cl | -13.5 °C | 201 °C | log10 vapour pressure (mmHg): -0.339; ready biodegradability: not readily biodegradable
CC(N)CC(=O)O (configuration not stated) | 193 °C | – | –
CC(C)=NNC(N)=S | – | – | ready biodegradability: not readily biodegradable
Clc1ccc(-c2c(Cl)c(Cl)c(Cl)c(Cl)c2Cl)c(Cl)c1 | – | – | log10 Koa: 10.5
CCC1(CC)C(=O)CCNC1=O | 104 °C | – | –
COC(=O)C(C)(C)O | – | 137 °C | –
CCCCOc1ccccc1OCCCC | – | – | ready biodegradability: not readily biodegradable
CCCOc1ccccc1O | – | 227 °C | –
CC(=O)[C@H]1CC[C@H]2[C@@H]3C=CC4=CC(=O)CC[C@@]4(C)[C@@H]3CC[C@]12C | 170 °C | – | –
NC(=O)N1c2ccccc2C=Cc2ccccc21 | 190 °C | – | –
CCCCCCCCCCCCCCCCCCCCC1CCCCC1 | 48.5 °C | 430 °C | –
CC(=O)c1ccccc1O | 5 °C | 218 °C | –
N[C@@H](CC(=O)O)C(=O)O (racemic) | 272 °C | – | –
O=c1occcc1O | 93.8 °C | – | –
CN(C)CCc1c[nH]c2ccccc12 | 46 °C | – | –
C/C(=N\C#N)N(C)Cc1ccc(Cl)nc1 | 98.9 °C | – | –
CC[C@@H](CO)NC(=O)[C@@H]1C=C2c3cccc4[nH]cc(c34)C[C@H]2N(C)C1 | 172 °C | – | –
CC(=CC(=O)c1ccccc1)c1ccccc1 | – | 342 °C | –
CC(C)(O)C(F)(F)F | – | 81 °C | –
CC(=O)C1CCC1 | – | 138 °C | –

Structure (SMILES) | melting point | boiling point | other results
OC[C@H]1O[C@H](O)[C@H](O)[C@@H](O)[C@@H]1O | – | – | log10 vapour pressure (mmHg): -13.1
CCCCC(C)Cl (configuration not stated) | – | 122 °C | log10 vapour pressure (mmHg): 1.13
CN(C)CC#N | – | 138 °C | –
Cc1ccc(N=Cc2ccccc2)cc1 | 35 °C | 318 °C | –
COc1cc2c(cc1O)CCN[C@@H]2C | 222 °C | – | –
Cc1ccc2[nH]c3ccccc3c2c1 | 208 °C | 365 °C | –
CCCN(CCC)N=O | – | 206 °C | ready biodegradability: not readily biodegradable
Cc1cc([N+](=O)[O-])ccc1N | 134 °C | – | –
CCOc1ccc(NC(N)=O)cc1 | 174 °C | – | –
CC(C)C1CC1 | -113 °C | 58.3 °C | –
N=C(N)NC(=O)Cc1c(Cl)cccc1Cl | 226 °C | – | –
CC1=C(O)C(=O)C(C(C)C)CC1 (configuration not stated) | 83 °C | – | –
O=C(NC(=O)c1ccccc1)c1ccccc1 | 152 °C | – | –
C=C(C)C(=O)OC(C)(C)C | – | – | ready biodegradability: not readily biodegradable
CC=C(Cl)C=O | – | 148 °C | –
CC(C)(c1cc(Br)c(O)c(Br)c1)c1cc(Br)c(O)c(Br)c1 | 181 °C | – | ready biodegradability: not readily biodegradable; log10 BCF (fish): 2.43
FC(F)CBr | -75 °C | 57.3 °C | –
O=[N+]([O-])c1cccc(CO)c1 | 30.5 °C | – | –
O=[N+]([O-])c1ccc(Oc2c(Cl)cc(Cl)cc2Cl)cc1 | 106 °C | – | log10 Koc (L/kg): 3.9; ready biodegradability: not readily biodegradable; log10 BCF (fish): 3.31; log10 biotransformation half-life (days) (fish): 0.75
Cc1cnc(Cl)nc1Cl | 26 °C | 235 °C | –
CC(/C=C/C=C(C)/C=C/[C@@]1(O)C(C)(C)CCC[C@@]1(C)O)=C\C=C\C=C(C)\C=C\C(=O)O | 213 °C | – | –
C/C(=C/CC[C@@]1(C)C2C[C@@H]3[C@H](C2)C31C)CO | – | 302 °C | –
C#COCC | – | 50 °C | –

Structure (SMILES) | melting point | boiling point | other results
Clc1ccc(-c2c(Cl)cc(Cl)c(Cl)c2Cl)c(Cl)c1 | 73 °C | – | –
CCCC(=O)C1=C(O)C(C)(C)C(O)=C(Cc2c(OC)cc(O)c(C(=O)CCC)c2O)C1=O | 150 °C | – | –
ClCc1ccccc1CCl | 55 °C | 240 °C | –
c1ccc2cc(Nc3ccc4ccccc4c3)ccc2c1 | 172 °C | 471 °C | –
CCC(N)C(O)c1ccccc1 (configuration not stated) | 79.5 °C | – | –
O=Cc1cc(Cl)ccc1O | 100 °C | – | –
COc1cccc(Cl)c1 | – | 194 °C | –
Clc1ccc(C2(Cn3cncn3)CC(Br)CO2)c(Cl)c1 (configuration not stated) | 84 °C | – | log10 vapour pressure (mmHg): -7.52
ClCCOCOCCCl | -32 °C | 218 °C | log10 Koc (L/kg): 1.79; log10 vapour pressure (mmHg): -0.879
CCOC(=O)c1c[nH]c(=S)[nH]c1=O | 252 °C | – | –
C[C@H]1CC(=O)C[C@@H]2CC[C@H]3[C@@H]4CC[C@H](O)[C@@]4(C)CC[C@@H]3[C@]21C | 204 °C | – | –
Cc1ccc(S(=O)c2ccc(C)cc2)cc1 | 95 °C | – | –
OC(CCCN1CCCCC1)(c1ccccc1)c1ccccc1 | 104 °C | – | –
CCC(=O)OC(C)CC (configuration not stated) | – | 133 °C | –
Cc1cc(O)cc(Br)c1 | 56.5 °C | – | –
BrCC(Br)(Br)CBr | 10.5 °C | – | –
Nc1cc(Cl)c(O)c(Cl)c1 | 168 °C | – | –
FCC(F)(F)F | -101 °C | -26 °C | log10 Henry constant (atm·m³/mol): -1.3; log10 vapour pressure (mmHg): 3.7
CC(C)C1(C)N=C(c2nc3ccccc3cc2C(=O)O)NC1=O (configuration not stated) | 221 °C | – | log10 Koc (L/kg): 1.3; ready biodegradability: not readily biodegradable
CC(C)CC(C)(C)O | – | 133 °C | –
C[B]C | -72.5 °C | 70.5 °C | –
C[C@]12C[C@H](O)[C@H]3[C@@H](CCC4=CC(=O)CC[C@@]43C)[C@@H]1CC[C@@H]2C(=O)CO | 181 °C | – | –
